{"source": "patent US20190185438A1", "about": "(Tonix Pharmaceuticals Holding Corp., priority 2016, published 2019)", "origin": "cited, not measured here", "key": {"[1]": {"test_system": "patients with fibromyalgia"}, "[2]": {"test_system": "patients with fibromyalgia", "settings": "8 weeks"}, "[3]": {"settings": "4 mg/day, week 14, 10-point scale, p <0.001"}}, "note": "Read-outs that look alike come from different tables or passages of the source. Marks after values point to notes of the source that are not given here."}
{"compound": "CCOc1ccccc1O[C@@H](c1ccccc1)[C@@H]1CNCCO1", "note": "[Esreboxetine, (2S)-2-[(S)-(2-ethoxyphenoxy)-phenylmethyl]morpholine]", "values": [{"measurement": "GFI score compared to placebo", "setting": "[1]; 4 mg/day and 8 mg/day, 14 weeks, P=0.001", "value": "significant improvement"}, {"measurement": "GFI score, treatment difference", "setting": "[1]; [3]", "value": "−0.64* (10-point scale)"}, {"measurement": "Pain score, treatment difference", "setting": "[1]; [3]", "value": "−0.74* (10-point scale)"}, {"measurement": "FIQ score, treatment difference", "setting": "[1]; 4 mg/day, week 14, 100-point scale, p <0.001", "value": "−7.12* (100-point"}, {"measurement": "PGIC, much improved or very much improved", "setting": "[1]; 4 mg/day, week 14, p 0.002", "value": 41.7, "unit": "%**"}, {"measurement": "Tolerability", "setting": "[1]; 14 weeks", "value": "generally well tolerated"}, {"measurement": "PGIC score compared to placebo", "setting": "[1]; all doses (4, 8, 10 mg/day), 14 weeks, P≤0.007", "value": "significant improvement"}, {"measurement": "FIQ score compared to placebo", "setting": "[1]; all doses (4, 8, 10 mg/day), 14 weeks, P≤0.023", "value": "significant improvement"}, {"measurement": "Pain score compared to placebo", "setting": "[1]; all doses (4, 8, 10 mg/day), 14 weeks, P≤0.025", "value": "significant improvement"}, {"measurement": "Tolerability", "setting": "[2]", "value": "generally well-tolerated"}, {"measurement": "Pain scores compared to placebo", "setting": "[2]; 2 mg/day raised to 8 mg/day or maximum tolerated dose", "value": "statistically significant reductions"}, {"measurement": "Patients discontinued due to adverse events", "setting": "[2]; placebo 2.3%", "value": 8.2, "unit": "%"}]}
